Measured values: patent US20240018466A1, “METHOD FOR INDUCING SALMONELLA ENTERITIDIS INTO VBNC STATE BY SODIUM HYPOCHLORITE” (Zhejiang Academy of Agricultural Sciences, priority 2022, published 2024)

Assays:
S. Enteritidis CVCC 1806 [1] = test: Counts of culturable cells by plate counting method after NaClO stress treatment; type: cell-based, Salmonella enteritidis; details: after 2.5 h of treatment with 50 mg/L NaClO solution, room temperature; FIG. 1
S. Enteritidis CVCC 1806 [2] = test: Counts of live cells by Live and Dead BacLight SYTO9/PI staining and flow cytometry after NaClO stress treatment; type: cell-based, Salmonella enteritidis
Description: the NaClO stock solution of NaClO disinfectant solution containing 56.8 mg/mL chlorine was diluted to 100 mg/L with sterilized sterile water for later use, and 0.5 ml of bacterial suspension (10^9 CFU/mL) and 100 mg/L NaClO solution were taken respectively into a sterile EP tube. The products in the sterile EP tube were vortex-mixed, and the stress concentration in the final system was 50 mg/L.
The mixed reagent was placed at room temperature, and systems were obtained for processing every 0.5 h within a stress treatment for up to 3 h, and 100 μL 1.5% Na2S2O3 was added to terminate the reaction.
Counts of live cells: the concentration of bacterial suspension was adjusted to 10^7-10^9 CFU/mL, and live, dead and injured bacteria were distinguished using commercial Live and Dead BacLight test kits (Molecular Probes, Carlsbad, CA, USA). […]

## OCl [NaClO, sodium hypochlorite]
S. Enteritidis CVCC 1806 [1]
  number of culturable cells: 0 CFU/ml
S. Enteritidis CVCC 1806 [2]; after 2.5 h of treatment with 50 mg/L NaClO solution, flow cytometry
  total content of live cells and bacteria in the sub-lethal injury state in the system: 60.03%
S. Enteritidis CVCC 1806 [2]; after 2.5 h of treatment with 50 mg/L NaClO, live minus culturable cells at maximum
  induction of VBNC state: enter the VBNC state
